Assay results taken from patent US9499537B2, “Antiviral pyrrolopyridine derivatives and method for preparing the same” (KOREA RESEARCH INSTITUTE OF CHEMICAL TECHNOLOGY, priority 2011, dated 2016).

tested on: MT-4 cells; assay: Cytotoxicity test in MT-4 cells (MTT method); format: cell-based; details: not given
Protocol: In order to look into the HIV-1 inhibition effects of the compound of the present invention, an in vitro test for HIV-1 inhibition effects was carried out as follows according to a known method (H. Tanaka et al., J. Med. Chem., 1991, 34, 349). MT-4 cells were used as host cells, and the degree of the compound of the present invention inhibiting the cytotoxicity of the virus-infected MT-4 cells was investigated.
First, MT-4 cells were diffused at a concentration of 1×10^4 cell/well to a culture medium, and HIV-1 was inoculated so that the concentration was 500 TCI50 (concentration at which 50% of the cell is infected)/well. Immediately after the inoculation, the cell dispersion was transferred in 100 μL each to a flat microtiter plate in which the sample of the compound of the present invention was placed. The sample was incubated for approximately for 4 to 5 days at […], and the virus suppression effect was determined using an MTT method. In addition, the cytotoxicity was also determined by measuring the survivability of the experimentally virus-infected cells using an MTT method. As a comparative compound, azidothymidine (AZT) and raltegravir were used.

Compound | CC60 (μM) ** : concentration at 50% cell damage with respect to MT-4 cells [µM]
Cc1nc2c(c(C)c(C)n2C)c(-c2cc(F)c3c(c2C)CCCO3)c1[C@H](OC(C)(C)C)C(=O)O [Example 75, (S)-2-(tert-butoxy)-2-((S)-4-(8-fluoro-5-methylchroman-6-yl)-1,2,3,6-tetramethyl-1H-pyrrolo[2,3-b]pyridin-5-yl)acetic acid] | 37.22
Cc1nc2c(c(C)c(C)n2C)c(-c2ccc3c(c2Cl)CCCO3)c1[C@H](OC(C)(C)C)C(=O)O [Example 72, (S)-2-(tert-butoxy)-2-((R)-4-(5-chlorochroman-6-yl)-1,2,3,6-tetramethyl-1H-pyrrolo[2,3-b]pyridin-5-yl)acetic acid] | 16.18

same assay, conditions: human

Compound | CC60 (μM) ** : concentration at 50% cell damage with respect to MT-4 cells [µM]
Cc1nc2c(c(C)c(C)n2C)c(-c2ccc(Cl)cc2)c1[C@H](OC(C)(C)C)C(=O)O [Example 26, (S)-2-Tert-butoxy-2-(4-(4-chlorophenyl)-1,2,3,6-tetramethyl-1H-pyrrolo[2,3-b]pyridin-5-yl)acetic acid] | 55.84
Cc1nc2c(c(C)c(C)n2Cc2cccc(Cl)c2)c(-c2ccc(Cl)cc2)c1C(OC(C)(C)C)C(=O)O (stereo not drawn) [Example 6, 2-Tert-butoxy-2-(1-(3-chlorobenzyl)-4-(4-chlorophenyl)-2,3,6-trimethyl-1H-pyrrolo[2,3-b]pyridin-5-yl)acetic acid] | 9.74
Cc1nc2c(c(C)c(C)n2CC(=O)O)c(-c2ccc(Cl)cc2)c1[C@H](OC(C)(C)C)C(=O)O [Example 57, (S)-2-(Tert-butoxy)-2-(1-carboxymethyl)-(4-(4-chlorophenyl)-2,3,6-trimethyl-1H-pyrrolo[2,3-b]pyridin-5-yl)acetic acid] | >217.9
Cc1nc2c(c(C)c(C)n2Cc2cccnc2)c(-c2ccc(Cl)cc2)c1[C@H](OC(C)(C)C)C(=O)O [Example 53, (S)-2-(Tert-butoxy)-2-(4-(4-chlorophenyl)-2,3,6-trimethyl-1-(pyridin-3-ylmethyl)-1H-pyrrolo[2,3-b]pyridin-5-yl)acetic acid] | 53.33
Cc1nc2c(c(C)c(C)n2CCC#N)c(-c2ccc(Cl)cc2)c1[C@@H](OC(C)(C)C)C(=O)O [Example 31, (R)-2-tert-butoxy-2-(4-(4-chlorophenyl)-1-(2-cyanoethyl)-2,3,6-trimethyl-1H-pyrrolo[2,3-b]pyridin-5-yl)acetic acid] | 86.73
Cc1nc2c(c(C)c(C)n2CCN(C)C)c(-c2ccc(Cl)cc2)c1[C@H](OC(C)(C)C)C(=O)O [Example 65, (S)-2-(Tert-butoxy)-2-(4-(4-chlorophenyl)-1-(2-dimethylaminoethyl)-2,3,6-trimethyl-1H-pyrrolo[2,3-b]pyridin-5-yl)acetic acid] | 70.86
Cc1nc2c(c(C)c(C)n2Cc2cncs2)c(-c2ccc(Cl)cc2)c1[C@H](OC(C)(C)C)C(=O)O [Example 63, (S)-2-(Tert-butoxy)-2-(4-(4-chlorophenyl)-2,3,6-trimethyl-1-(thiazol-5-ylmethyl)-1H-pyrrolo[2,3-b]pyridin-5-yl)acetic acid] | 38.3
CCn1c(C)c(C)c2c(-c3ccc(F)cc3)c(C(OC(C)(C)C)C(=O)O)c(C)nc21 (stereo not drawn) [Example 39, 2-Tert-butoxy-2-(1-ethyl-4-(4-fluorophenyl)-2,3,6-trimethyl-1H-pyrrolo[2,3-b]pyridin-5-yl)acetic acid] | 78.47
Cc1cccc(Cn2c(C)c(C)c3c(-c4ccc(Cl)cc4)c(C(OC(C)(C)C)C(=O)O)c(C)nc32)n1 (stereo not drawn) [Example 14, 2-Tert-butoxy-2-(4-(4-chlorophenyl)-2,3,6-trimethyl-1-((6-methylpyridin-2-yl)methyl)-1H-pyrrolo[2,3-b]pyridin-5-yl)acetic acid] | 36.6
Cc1nc2c(c(C)c(C)n2CC2CC2)c(-c2ccc(Cl)cc2)c1[C@@H](OC(C)(C)C)C(=O)O [Example 29, (R)-2-tert-butoxy-2-(4-(4-chlorophenyl)-1-(cyclopropylmethyl)-2,3,6-trimethyl-1H-pyrrolo[2,3-b]pyridin-5-yl)acetic acid] | 100
Cc1nc2c(c(C)c(C)n2CC2CCC2)c(-c2ccc(Cl)cc2)c1[C@H](OC(C)(C)C)C(=O)O [Example 48, (S)-2-(Tert-butoxy)-2-(4-(4-chlorophenyl)-1-(cyclobutylmethyl)-2,3,6-trimethyl-1H-pyrrolo[2,3-b]pyridin-5-yl)acetic acid] | 14.22
Cc1nc2c(c(C)c(C)n2Cc2cccnc2)c(-c2ccc(Cl)cc2)c1C(OC(C)(C)C)C(=O)O (stereo not drawn) [Example 12, 2-Tert-butoxy-2-(4-(4-chlorophenyl)-2,3,6-trimethyl-1-(pyridin-3-ylmethyl)-1H-pyrrolo[2,3-b]pyridin-5-yl)acetic acid] | 56.14
COc1cc(Cn2c(C)c(C)c3c(-c4ccc(Cl)cc4)c(C(OC(C)(C)C)C(=O)O)c(C)nc32)cc(Cl)n1 (stereo not drawn) [Example 35, 2-Tert-butoxy-2-(4-(4-chlorophenyl)-1-((2-chloro-6-methoxypyridin-4-yl)methyl)-2,3,6-trimethyl-1H-pyrrolo[2,3-b]pyridin-5-yl)acetic acid] | 14.86
CCn1c(C)c(C)c2c(-c3ccc(C)cc3)c(C(OC(C)(C)C)C(=O)O)c(C)nc21 (stereo not drawn) [Example 38, 2-Tert-butoxy-2-(1-ethyl-2,3,6-trimethyl-4-(para-tolyl)-1H-pyrrolo[2,3-b]pyridin-5-yl)acetic acid] | 40.34
CCn1c(C)c(C)c2c(-c3ccc(OC)cc3)c(C(OC(C)(C)C)C(=O)O)c(C)nc21 (stereo not drawn) [Example 41, 2-(Tert-butoxy)-2-(1-ethyl-4-(4-methoxyphenyl)-2,3,6-trimethyl-1H-pyrrolo[2,3-b]pyridin-5-yl)acetic acid] | 31.49
Cc1nc2c(c(C)c(C)n2Cc2ccccc2C#N)c(-c2ccc(Cl)cc2)c1C(OC(C)(C)C)C(=O)O (stereo not drawn) [Example 11, 2-Tert-butoxy-2-(4-(4-chlorophenyl)-1-(2-cyanobenzyl)-2,3,6-trimethyl-1H-pyrrolo[2,3-b]pyridin-5-yl)acetic acid] | 15.19
Cc1nc2c(c(C)c(C)n2Cc2cocn2)c(-c2ccc(Cl)cc2)c1[C@H](OC(C)(C)C)C(=O)O [Example 56, (S)-2-(Tert-butoxy)-2-(4-(4-chlorophenyl)-2,3,6-trimethyl-1-(oxazol-4-ylmethyl)-1H-pyrrolo[2,3-b]pyridin-5-yl)acetic acid] | 24.56
CCCn1c(C)c(C)c2c(-c3ccc(Cl)cc3)c(C(OC(C)(C)C)C(=O)O)c(C)nc21 (stereo not drawn) [Example 15, 2-Tert-butoxy-2-(4-(4-chlorophenyl)-2,3,6-trimethyl-1-propyl-1H-pyrrolo[2,3-b]pyridin-5-yl)acetic acid] | 20.7
Cc1nc2c(c(C)c(C)n2CC2(O)CC2)c(-c2ccc(Cl)cc2)c1[C@H](OC(C)(C)C)C(=O)O [Example 52] | 34.33
Cc1nc2c(c(C)c(C)n2C)c(-c2ccc(Cl)cc2)c1C(OC(C)(C)C)C(=O)O (stereo not drawn) [Example 1, 2-Tert-butoxy-2-(4-(4-chlorophenyl)-1,2,3,6-tetramethyl-1H-pyrrolo[2,3-b]pyridin-5-yl)acetic acid] | 25
Cc1nc2c(c(C)c(C)n2C(C)C)c(-c2ccc(Cl)cc2)c1C(OC(C)(C)C)C(=O)O (stereo not drawn) [Example 21, 2-Tert-butoxy-2-(4-(4-chlorophenyl)-1-isopropyl-2,3,6-trimethyl-1H-pyrrolo[2,3-b]pyridin-5-yl)acetic acid] | 24.51
Cc1nc2c(c(C)c(C)n2Cc2ccncc2)c(-c2ccc(Cl)cc2)c1[C@H](OC(C)(C)C)C(=O)O [Example 36, (S)-2-Tert-butoxy-2-(4-(4-chlorophenyl)-1-(pyridin-4-ylmethyl)-2,3,6-trimethyl-1H-pyrrolo[2,3-b]pyridin-5-yl)acetic acid] | 24.49
Cc1nc2c(c(C)c(C)n2CC2(C#N)CC2)c(-c2ccc(Cl)cc2)c1[C@H](OC(C)(C)C)C(=O)O [Example 47, (S)-2-(tert-butoxy)-2-(4-(4-chlorophenyl)-1-((1-cyanocyclopropyl)methyl)-2,3,6-trimethyl-1H-pyrrolo[2,3-b]pyridin-5-yl)acetic acid] | 16.64
Cc1nc2c(c(C)c(C)n2CC2CCCC2)c(-c2ccc(Cl)cc2)c1[C@H](OC(C)(C)C)C(=O)O [Example 49, (S)-2-(Tert-butoxy)-2-(4-(4-chlorophenyl)-1-(cyclopentylmethyl)-2,3,6-trimethyl-1H-pyrrolo[2,3-b]pyridin-5-yl)acetic acid] | 15.3
Cc1nc2c(c(C)c(C)n2Cc2ccncc2)c(-c2ccc(Cl)cc2)c1C(OC(C)(C)C)C(=O)O (stereo not drawn) [Example 10, 2-Tert-butoxy-2-(4-(4-chlorophenyl)-2,3,6-trimethyl-1-(pyridin-4-ylmethyl)-1H-pyrrolo[2,3-b]pyridin-5-yl)acetic acid] | >203
